Tests used:
B9 (HRAS Q61L) cell line = assay: B9 P-ERK cell activation assay (AlphaScreen); format: cell-based, mouse; conditions: RAS mutant cell line B9; one hour treatment
How it was run: (§1)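 Mouse B9 (HRAS-driven skin SCC) or human IPC-298 melanoma cells treated with an 8-point compound titration for one hour at 37° C., then lysed. ERK1/2 phosphorylation at Thr202/Tyr204 read by AlphaScreen with total-ERK and phospho-ERK antibodies.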

[1] = test system: IPC-298 (NRAS Q61L) cell line; assay: IPC-298 P-ERK cell activation assay (AlphaScreen); format: cell-based, human; conditions: RAS mutant cell line IPC-298; one hour treatment
How it was run: as §1

[2] = test system: A375 (BRAF V600E) cell line; assay: A375 P-ERK inhibition assay (AlphaScreen); format: cell-based, human; conditions: BRAF V600E cell line A375
How it was run: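 A375 cells treated with 8-point compound titration for 1 h at 37° C, then lysed. ERK1/2 Thr202/Tyr204 phosphorylation measured by AlphaScreen, using biotinylated total-ERK antibody on donor beads and phospho-specific antibody on acceptor beads.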

[3] = test system: mutant BRAF V600 driven melanoma; conditions: cited from earlier work
[4] = test system: gastric cancer cell line MKN28; conditions: cited from earlier work

SMILES | pERK activation (B9 (HRAS Q61L) cell line) | pERK activation [1] | pERK inhibition [2] | tumor response in patients [3] | proliferation and growth of MKN28 [4]
CC(C)(C)c1nc(-c2cccc(NS(=O)(=O)c3c(F)cccc3F)c2F)c(-c2ccnc(N)n2)s1 [dabrafenib, reference compound] | unusual bell-shaped pERK activation curve | unusual bell-shaped pERK activation curve | highly potent inhibitor | objective tumor response | –
CS(=O)(=O)Nc1ccc([N+](=O)[O-])cc1OC1CCCCC1 [NS-398] | – | – | – | – | significantly inhibit proliferation and growth
COc1ccc2c(c1)c(CC(=O)O)c(C)n2C(=O)c1ccc(Cl)cc1 [indomethacin] | – | – | – | – | significantly inhibit proliferation and growth
